Assay [1] addresses T1, R67 dihydrofolate reductase (R67 DHFR; 4F, 5F, 6F and 7F R67 DHFR) (Escherichia coli, UniProt P00383).
T1 sequence (P00383 1-78): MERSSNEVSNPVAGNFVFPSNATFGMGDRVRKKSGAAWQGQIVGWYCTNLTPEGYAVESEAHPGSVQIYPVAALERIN
Kind of assay: […] NMR titration, chemical shift, […] fit. The class given is binding.

Assay [2] deals with T1, R67 dihydrofolate reductase (R67 DHFR; 4F, 5F, 6F and 7F R67 DHFR). Put plainly: […] NMR titration, peak intensity, […] fit. The settings on record: Kd (μM) ^a / NADP^+. The class given is binding.

The results in this text go back to PMC7784773 (Protein Science : A Publication of the Protein Society, 2020).

“And” between values parts separate entries of the source, which are not always exact repeats. Identical values can stand only once.

For `NC(=O)c1ccc[n+]([C@@H]2O[C@H](COP(=O)(O)OP(=O)(O)OC[C@H]3O[C@@H](n4cnc5c(N)ncnc54)[C@H](OP(=O)(O)O)[C@@H]3O)[C@@H](O)[C@H]2O)c1` [NADP^+], the Kd (as a rule, the constant that tells how readily two partners part at equilibrium) is 220 ± 20 µM in assay [1]; 360 µM and 320 µM and 380 µM in assay [2].
